Source: US20110092488A1, “Quninoline Methanol Compounds for the Treatment and Prevention of Parasitic Infections” (priority 2005, published 2011)

What was measured:
[1] = tested on: P. falciparum TM91C235; assay: In vitro antimalarial activity against P. falciparum TM91C235; format: cell-based, Plasmodium falciparum
[2] = tested on: FVO strain of P. falciparum; assay: Efficacy in P. falciparum-challenged Aotus monkeys; format: in vivo, Plasmodium falciparum in Aotus lemurinus lemurinus
Description: (§1) The P. berghei-mouse efficacy data were obtained from the WRAIR chemical information system (subcutaneous testing) or from recent tests conducted at AFRIMS, Thailand or at the University of Miami using a modified version of the Thompson test. Groups of five mice were inoculated through i.p. injection on day 0 (usually with 1×106 P. berghei-parasitized erythrocytes). The drugs in Table 1 were administered either subcutaneously or orally for three days (usually on days 3-5) at doses of 1.25-160 mg/kg in two to four fold increments. Cure was defined as survival until day 60 (subcutaneous dosing) or day 31 post-treatment (oral dosing). […] The minimum effective dose was the lowest dose level that cured at least one of five mice. The Aotus studies were performed according to Obaldia; Detection of Klebsiella pnuumoniae antibodies in Aotus l. lemurinus (Panamanian owl monkey) using an enzyme linked immunosorbent assay (ELIA) test; Lab Anim (25)133-141 (1991) and Obaldia et al., WR 238605, chloroquine, and their combinations as blood schizonticides against a chloroquine-resistant strain of Plasmodium vivax in Aotus monkeys; Am. J. Trop. Med. Hyg. (56)508-510 (1997), which are incorporated by reference, herein. Groups of two Aotus lemurinus 6 lemurinus of the karyotype VIII or IX (27) male and female monkeys with weights ranging from 742-970 g were inoculated with 5×10^6 parasites of either the FVO strain of P. falciparum or the AMRU1 strain of P. vivax. Both of these strains are chloroquine resistant. […] Monkeys were examined and thick Giemsa-stained blood smears were prepared and enumerated daily (17) to monitor the course of infection. […] In some instances, a high dose of the test drug was used to retreat monkeys instead of the mefloquine rescue. Monkeys are considered cured if they are parasite free 90 days post treatment. […] Plasma samples were taken from the monkeys in some studies for quantification of metabolites. Additional blood samples were taken as appropriate for complete blood counts and serum chemistry. Research was conducted in compliance with the Animal Welfare Act and other federal statutes and regulations relating to animals and experiments involving animals and adheres to principles stated in the Guide for the Care and Use of Laboratory Animals, NRC Publication, 1996 edition (34).

[3] = Aotus, 10 mg/kg/day oral x7
Description: as §1

[4] = tested on: Balb/c 3T3 mouse fibroblast cells; assay: 3T3 neutral red uptake (NRU) phototoxicity test; format: cell-based
Text: A pharmacophore for phototoxicity was developed to be used as an in silico screening tool to determine the minimum phototoxic concentration for a number of AAQMS (WR069878 and those indicated in Table 5). Minimum phototoxic concentration in a yeast assay for a number of AAQMS, as per Ison et al.; Phototoxicity of Quinoline methanols and other drugs in mice and yeast; J. Invest. Dermatol. (52)193-198 (1969) were used to generate a three-dimensional pharmacophore model using the HypoGen algorithm of the […]® (Accelrys software Inc.) methodology as per Bhattacharjee et al.; A 3D QSAR pharmacophore model and quantum chemical structure—activity analysis of chloroquine(CQ)-resistance reversal; J. Chem Inf. Comput Sci. (42) 1212-1220 (2002), and Dow et al.; as discussed in Antimicrob Agents Chemother. (48)2624-2632 (2004), cited above, both Bhattacharjee et al. and Dow et al, incorporated herein, by reference. The structures of clinically used quinoline methanols were mapped onto the pharmacophores and estimated values for minimum phototoxic concentration were generated. The 3T3 neutral red uptake (NRU) phototoxicity test, conducted by MB Research Laboratories (Spinnerstown, Pa.), was used to identify quinoline methanols (WR069878 and those in Table 5) that have the potential to exert in vivo phototoxicity after systemic application. Briefly, the central 60 wells of two 96-well plates per AAQM were seeded with Balb/c 3T3 mouse fibroblast cells and maintained in culture for 24 hrs. These plates were then pre-incubated with a range of eight different concentrations of test compound (six wells per concentration) for one hour. Next, one plate was treated with a UVA dose of 5 J/cm2 by irradiating for 50 min at 1.7 mW/cm2, whereas the other plate remained non-treated and in the dark. Next, the treatment medium was replaced with culture medium and cell viability was determined after 24 hrs by measuring neutral red uptake for 3 hrs. Finally, the 3T3 NRU Phototox Prediction Software (version 2.0, ZEBET) was used to calculate EC50 values and Photo-Irritant Factors (PIF) for each compound. […]

[5] = mouse, in vivo
[6] = tested on: Plasmodium falciparum malaria; details: P. falciparum malaria, South East Asia; WR030090: field trials; cited from earlier work

With CCCCN(CCCC)CC(O)c1cc(-c2ccc(Cl)c(Cl)c2)nc2c(Cl)cc(Cl)cc12 (stereo not drawn) [WR030090] the “Activity against P. falciparum TM91C235 (IC50 in ng/ml)” value [1] was 11 ng/mL, the “TM91C235 IC90” value ([1]; Table 2) was 0.052 mg/L and the “Outcome in Aotus, earlier studies” value ([2]; 10 mg/kg/day x7, WRAIR archival data) was “cleared but did not cure infections”. For the same molecule, the “Outcome in Aotus” value ([2]; 10 mg/kg/day x7 oral, groups of two, Cure = parasite free 90 days, R = average day of recrudescence, Failure = rescued with mefloquine) was “Failure”, the “Mean peak concentration” value [3] was 307 ng/mL and the “Plasma conc on day 1 (ng/ml) 2 h” value ([3]; day 1, 2 h) was 597 ng/mL. For the same molecule, the “Plasma conc on day 1 (ng/ml) 24 h” value ([3]; day 1, 24 h) was 11 ng/mL, the “Plasma conc. on day 7 (ng/ml) 2 h” value ([3]; day 7, 2 h) was 16 ng/mL and the “Plasma conc. on day 7 (ng/ml) 24 h” value ([3]; day 7, 24 h) was 5.6 ng/mL. The “Photo Irritant Factor (PIF)” value [4] was 105.7, the Phototoxicity in mice [5] was “are phototoxic^d” and the Cure rate [6] was “at least 88%”.
